Measured values from PMC5843811, “^44Sc for labeling of DOTA- and NODAGA-functionalized peptides: preclinical in vitro and in vivo investigations” (EJNMMI Radiopharmacy and Chemistry, 2016).
Where two headings read alike, the source gives them in different places. Values belong to the compound of their own block, whether it stands above or below them.

How the values were obtained:
in vivo = settings: female, CD-1 nude (athymic nude), mouse, iv, 5 MBq per mouse, total radioactivity, Biodistribution
Protocol: (§1) Female athymic nude mice (CD-1 nude), age 5–6 weeks, were obtained from Charles River Laboratories, Sulzfeld, Germany. U87MG cells and AR42J-cells were suspended in PBS (5 × 10^6 cells in 100 μL) and subcutaneously inoculated on each shoulder. Two to three weeks later, when the tumor reached a size of about 300–500 mm^3, the mice were used for the in vivo studies.
(§2) Biodistribution studies were performed with U87MG tumor and AR42J tumor-bearing mice 2 weeks after tumor cell inoculation. ^44Sc- and ^68Ga-labeled peptides (~5 MBq, ~1 nmol per mouse) were intravenously injected in a volume of 100–200 μL. Mice were sacrificed at 30 min, 2 h and 5 h after injection (p.i.) of the ^44Sc-labeled peptides. Mice which were injected with ^68Ga-labeled peptides were sacrificed at 30 min and 2 h p.i. Selected tissues and organs were collected, weighed, and counted for radioactivity using a γ-counter (Wallac Wizard 1480, Perkin Elmer). The results were listed as a percentage of the injected activity per gram of tissue mass (% IA/g), using counts of a defined volume of the original injection solution counted at the same time. The data were analyzed for significance using a two-way ANOVA test (Graph Pad Prism 6 software, version 6.05). A p-value of < 0.05 was considered statistically significant.

AR42J tumor-bearing mice [1] = settings: female, CD-1 nude (athymic nude), mouse, in vivo, iv, 5 MBq per mouse
Protocol: as §1, §2

[2] = Metal challenge stability in saline with 10 mM Cu^2+ (TLC); type: physicochemical; settings: 0.9 % NaCl with 10 mM Cu^2+, 37 °C, after two half-lives, 80–100 MBq in 800 μL
Protocol: Aliquots were taken from the prepared solutions at different time points over at least four half-lives, respectively, of ^44Sc and ^68Ga and analyzed by TLC (TLC was used, as the high metal concentrations used in this study may impair the long-term performance of HPLC columns). […] The TLC plates (Silica-gel 60, Merck) were developed using 0.1 M sodium citrate (pH 4.7) as mobile phase. The quantitative distribution of radioactivity was determined with an autoradiography system (Cyclone Plus, Perkin Elmer) and its associated software (Optiquant, version 5.0).
The influence of high metal cation concentration on the stability of ^44Sc and ^68Ga labeled peptides was monitored in solutions containing 0.01 M Fe^3+ or Cu^2+. An aqueous metal cation solution (16 μL of a 0.5 M Fe^3+/Cu^2+ solution) was added to 80–100 MBq of ^44Sc or ^68Ga labeling solution and diluted with 0.9 % NaCl solution to a volume of 800 μL. The incubation conditions, time points of retrieving samples and analysis by TLC were kept the same, as described above.

AR42J tumor-bearing mice [3] = experiment: PET/CT imaging of AR42J tumor-bearing mice; settings: 3 h after i.v. injection of ~10 MBq (~1 nmol; ^44Sc-NODAGA-NOC ~3 nmol), one or two mice
Protocol: A bench-top preclinical PET scanner (G8, Sofie Biosciences, California, U.S.A. and Perkin Elmer, Massachusetts, U.S.A.) was employed for the PET scans of the tumor-bearing mice. The energy window was set to 150–650 keV. Mice were injected intravenously with ^44Sc- or ^68Ga-labeled peptides (~10 MBq, ~1 nmol per mouse) in a volume of 100–200 μL. The PET scans were performed 3 h and 5 h after injection of the ^44Sc-labeled peptides and 3 h after injection of the ^68Ga-labeled peptides, using G8 acquisition software (version 2.0.0.10). All static PET scans lasted for 20 min. During the acquisition the mice were anesthetized by inhalation of a mixture of isoflurane and oxygen. The images were reconstructed with maximum-likelihood expectation maximization (MLEM). Gauss post-reconstruction filtering was performed using VivoQuant post-processing software (version 2.10, inviCRO Imaging Services and Software, Boston, U.S.A.).

[4] = Biodistribution in AR42J tumor-bearing mice; settings: female, CD-1 nude (athymic nude), mouse, AR42J tumor / liver, iv, total radioactivity, Tumor-to-liver ratio, i.v. ~5 MBq (~1 nmol), 2 h p.i., mean ± SD, n=3
Protocol: as §1, §2

[5] = Biodistribution in U87MG tumor-bearing mice; type: in vivo; settings: female, CD-1 nude (athymic nude), mouse, U87MG tumor, iv, total radioactivity, i.v. ~5 MBq (~1 nmol), 2 h p.i., mean ± SD, n=3, read-out: Biodistribution, U87MG Tumor
Protocol: as §1, §2

SMILES: C[C@@H](O)[C@@H]1NC(=O)[C@H](CCCCN)NC(=O)[C@@H](Cc2c[nH]c3ccccc23)NC(=O)[C@H](Cc2cccc3ccccc23)NC(=O)[C@@H](NC(=O)[C@@H](Cc2ccccc2)NC(=O)CN2CCN(CC(=O)O)CCN(CC(=O)O)CCN(CC(=O)O)CC2)CSSC[C@@H](C(=O)N[C@H](CO)[C@@H](C)O)NC1=O [^44Sc-DOTA-NOC, metal not drawn]
- tissue uptake at 0.5 h (in vivo; Intestines): 1.02 ± 0.37 %ID/g
- tissue uptake at 0.5 h (in vivo; Pancreas): 1.29 ± 0.28 %ID/g
- tissue uptake at 5 h (in vivo; Pancreas): 0.57 ± 0.07 %ID/g
- tissue uptake at 0.5 h (in vivo; Stomach): 1.38 ± 0.29 %ID/g
- tissue uptake at 5 h (in vivo; Stomach): 0.52 ± 0.09 %ID/g
- Biodistribution, Pancreas (AR42J tumor-bearing mice [1]; 2 h): 0.71 ± 0.01 % IA/g
- Biodistribution, Stomach (AR42J tumor-bearing mice [1]; 2 h): 0.71 ± 0.05 % IA/g

SMILES: N=C(N)NCCC[C@@H]1NC(=O)[C@H](CCCCNC(=O)CN2CCN(CC(=O)O)CCN(CC(=O)O)CCN(CC(=O)O)CC2)NC(=O)[C@@H](Cc2ccccc2)NC(=O)[C@H](CC(=O)O)NC(=O)CNC1=O [^68Ga-DOTA-RGD, metal not drawn]
- Amount of intact compound in presence of 10 mM Cu^2+ [2]: 10%

The next lines start with the values.

- Biodistribution, Intestines (AR42J tumor-bearing mice [1]; 0.5 h): 0.99 ± 0.13 % IA/g
- Biodistribution, Pancreas (AR42J tumor-bearing mice [1]; 0.5 h): 2.48 ± 0.11 % IA/g
- Biodistribution, Stomach (AR42J tumor-bearing mice [1]; 0.5 h): 2.27 ± 0.21 % IA/g
- Biodistribution, Pancreas (AR42J tumor-bearing mice [1]; 2 h): 1.70 ± 0.22 % IA/g
- Biodistribution, Stomach (AR42J tumor-bearing mice [1]; 2 h): 1.68 ± 0.27 % IA/g
SMILES: C[C@@H](O)[C@@H]1NC(=O)[C@H](CCCCN)NC(=O)[C@@H](Cc2c[nH]c3ccccc23)NC(=O)[C@H](Cc2cccc3ccccc23)NC(=O)[C@@H](NC(=O)[C@@H](Cc2ccccc2)NC(=O)CN2CCN(CC(=O)O)CCN(CC(=O)O)CCN(CC(=O)O)CC2)CSSC[C@@H](C(=O)N[C@H](CO)[C@@H](C)O)NC1=O [^68Ga-DOTA-NOC, metal not drawn]

- PET/CT distribution of radioactivity (in words) (AR42J tumor-bearing mice [3]): accumulated solely in tumors and kidneys
- tissue to tissue ratio at 2 h [4]: 5.88 ± 0.68
SMILES: C[C@@H](O)[C@@H]1NC(=O)[C@H](CCCCN)NC(=O)[C@@H](Cc2c[nH]c3ccccc23)NC(=O)[C@H](Cc2cccc3ccccc23)NC(=O)[C@@H](NC(=O)[C@@H](Cc2ccccc2)NC(=O)CCC(C(=O)O)N2CCN(CC(=O)O)CCN(CC(=O)O)CC2)CSSC[C@@H](C(=O)N[C@H](CO)[C@@H](C)O)NC1=O (stereo partly shown) [^68Ga-NODAGA-NOC, metal not drawn]

- tissue uptake at 2 h [5]: 3.13 ± 0.27 %ID/g
SMILES: N=C(N)NCCC[C@@H]1NC(=O)[C@H](CCCCNC(=O)CCC(C(=O)O)N2CCN(CC(=O)O)CCN(CC(=O)O)CC2)NC(=O)[C@@H](Cc2ccc(O)cc2)NC(=O)[C@H](CC(=O)O)NC(=O)CNC1=O (stereo partly shown) [^68Ga-NODAGA-RGD, metal not drawn]
